Reference: US9527869B2, “Indolizine derivatives as phoshoinositide 3-kinases inhibitors” (CHIESI FARMACEUTICI S.P.A., priority 2014, dated 2016)

Legend:
Type in all cases: biochemical
PI3Kδ = target: T1, PI3Kδ (Homo sapiens, UniProt O00329); test: In vitro determination of the PI3K enzyme inhibitory activity in the cell free assay (ADP-Glo Kinase Assay), PI3Kδ; conditions: ATP 80 μM, read-out: PI3K delta inhibition
T1 construct: purchased Millipore Ltd (Billerica, Mass.)
How it was run: (§1)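 IC50 values came from four-parameter logistic fitting of ADP-Glo luminescence after 60 min kinase reactions at room temperature. ATP (final) was set per isoform: α 50 μM, β 100 μM, γ 30 μM, δ 80 μM. Substrates were phosphatidylinositol and phosphatidylserine (50 μM in 2× Tris pH 7.5 buffer), with human recombinant enzymes.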

PI3Kγ = target: T2, PI3Kγ (Homo sapiens, UniProt P48736); test: In vitro determination of the PI3K enzyme inhibitory activity in the cell free assay (ADP-Glo Kinase Assay), PI3Kγ; conditions: ATP 30 μM, read-out: PI3K gamma inhibition
T2 construct: purchased Millipore Ltd (Billerica, Mass.)
T2 sequence (P48736 whole entry): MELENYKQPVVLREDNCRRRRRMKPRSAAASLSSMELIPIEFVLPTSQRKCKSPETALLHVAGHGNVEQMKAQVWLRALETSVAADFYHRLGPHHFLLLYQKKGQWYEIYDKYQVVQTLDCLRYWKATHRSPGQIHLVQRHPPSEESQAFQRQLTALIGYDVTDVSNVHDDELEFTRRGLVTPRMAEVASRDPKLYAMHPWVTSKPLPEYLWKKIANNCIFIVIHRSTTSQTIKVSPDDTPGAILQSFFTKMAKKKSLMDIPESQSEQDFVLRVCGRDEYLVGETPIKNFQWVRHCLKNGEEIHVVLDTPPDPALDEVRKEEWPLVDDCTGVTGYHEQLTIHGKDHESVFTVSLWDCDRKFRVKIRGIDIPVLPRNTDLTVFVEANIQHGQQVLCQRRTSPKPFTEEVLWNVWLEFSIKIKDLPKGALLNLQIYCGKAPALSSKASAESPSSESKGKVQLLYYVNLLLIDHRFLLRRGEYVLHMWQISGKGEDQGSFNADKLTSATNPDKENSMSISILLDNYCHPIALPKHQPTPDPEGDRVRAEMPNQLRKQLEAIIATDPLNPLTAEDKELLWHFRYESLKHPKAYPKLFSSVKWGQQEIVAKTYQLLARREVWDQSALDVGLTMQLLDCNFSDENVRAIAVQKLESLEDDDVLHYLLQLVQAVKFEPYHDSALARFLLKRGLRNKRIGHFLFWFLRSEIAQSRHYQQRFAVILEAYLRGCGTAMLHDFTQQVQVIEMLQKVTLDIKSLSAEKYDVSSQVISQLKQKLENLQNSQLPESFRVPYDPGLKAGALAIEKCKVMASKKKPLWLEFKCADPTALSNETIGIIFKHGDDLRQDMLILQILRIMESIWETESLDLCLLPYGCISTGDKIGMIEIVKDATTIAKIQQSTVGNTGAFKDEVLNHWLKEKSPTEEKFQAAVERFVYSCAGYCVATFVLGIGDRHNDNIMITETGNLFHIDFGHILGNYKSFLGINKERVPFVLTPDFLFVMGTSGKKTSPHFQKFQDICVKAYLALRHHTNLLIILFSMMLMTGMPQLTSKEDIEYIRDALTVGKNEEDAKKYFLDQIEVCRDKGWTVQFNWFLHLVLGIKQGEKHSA
How it was run: as §1

PI3Kβ = target: T3, PI3Kβ (Homo sapiens, UniProt P42338); test: In vitro determination of the PI3K enzyme inhibitory activity in the cell free assay (ADP-Glo Kinase Assay), PI3Kβ; conditions: ATP 100 μM, read-out: PI3K beta inhibition
T3 construct: purchased Millipore Ltd (Billerica, Mass.)
T3 sequence (P42338 whole entry): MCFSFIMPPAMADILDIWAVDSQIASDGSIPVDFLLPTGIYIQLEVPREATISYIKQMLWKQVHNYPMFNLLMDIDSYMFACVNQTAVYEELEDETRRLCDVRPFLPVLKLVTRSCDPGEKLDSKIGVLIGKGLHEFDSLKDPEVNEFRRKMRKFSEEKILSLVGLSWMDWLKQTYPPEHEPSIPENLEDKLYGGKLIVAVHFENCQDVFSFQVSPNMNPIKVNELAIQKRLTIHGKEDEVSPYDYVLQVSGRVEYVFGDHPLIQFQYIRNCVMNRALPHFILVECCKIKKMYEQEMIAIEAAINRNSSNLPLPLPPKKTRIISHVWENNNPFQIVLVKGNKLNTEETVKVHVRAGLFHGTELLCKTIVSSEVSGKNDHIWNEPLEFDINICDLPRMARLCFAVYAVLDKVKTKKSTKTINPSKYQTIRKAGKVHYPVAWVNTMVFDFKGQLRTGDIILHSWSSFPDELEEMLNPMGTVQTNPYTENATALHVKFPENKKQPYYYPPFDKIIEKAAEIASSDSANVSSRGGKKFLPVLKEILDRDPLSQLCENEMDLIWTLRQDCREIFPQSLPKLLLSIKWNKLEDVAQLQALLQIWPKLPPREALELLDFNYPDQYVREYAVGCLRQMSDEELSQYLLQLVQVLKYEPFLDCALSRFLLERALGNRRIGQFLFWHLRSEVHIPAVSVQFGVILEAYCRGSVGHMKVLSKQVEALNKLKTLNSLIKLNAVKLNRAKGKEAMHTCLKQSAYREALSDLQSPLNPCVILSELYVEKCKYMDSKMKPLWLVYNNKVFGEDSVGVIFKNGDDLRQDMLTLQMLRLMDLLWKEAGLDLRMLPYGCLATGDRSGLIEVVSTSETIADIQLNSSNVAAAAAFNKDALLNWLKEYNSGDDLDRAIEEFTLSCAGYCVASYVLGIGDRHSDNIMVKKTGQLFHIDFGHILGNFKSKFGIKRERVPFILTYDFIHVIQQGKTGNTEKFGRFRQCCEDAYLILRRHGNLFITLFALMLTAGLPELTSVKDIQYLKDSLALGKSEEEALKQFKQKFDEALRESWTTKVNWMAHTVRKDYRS
T3 sequence (P27986 whole entry partner): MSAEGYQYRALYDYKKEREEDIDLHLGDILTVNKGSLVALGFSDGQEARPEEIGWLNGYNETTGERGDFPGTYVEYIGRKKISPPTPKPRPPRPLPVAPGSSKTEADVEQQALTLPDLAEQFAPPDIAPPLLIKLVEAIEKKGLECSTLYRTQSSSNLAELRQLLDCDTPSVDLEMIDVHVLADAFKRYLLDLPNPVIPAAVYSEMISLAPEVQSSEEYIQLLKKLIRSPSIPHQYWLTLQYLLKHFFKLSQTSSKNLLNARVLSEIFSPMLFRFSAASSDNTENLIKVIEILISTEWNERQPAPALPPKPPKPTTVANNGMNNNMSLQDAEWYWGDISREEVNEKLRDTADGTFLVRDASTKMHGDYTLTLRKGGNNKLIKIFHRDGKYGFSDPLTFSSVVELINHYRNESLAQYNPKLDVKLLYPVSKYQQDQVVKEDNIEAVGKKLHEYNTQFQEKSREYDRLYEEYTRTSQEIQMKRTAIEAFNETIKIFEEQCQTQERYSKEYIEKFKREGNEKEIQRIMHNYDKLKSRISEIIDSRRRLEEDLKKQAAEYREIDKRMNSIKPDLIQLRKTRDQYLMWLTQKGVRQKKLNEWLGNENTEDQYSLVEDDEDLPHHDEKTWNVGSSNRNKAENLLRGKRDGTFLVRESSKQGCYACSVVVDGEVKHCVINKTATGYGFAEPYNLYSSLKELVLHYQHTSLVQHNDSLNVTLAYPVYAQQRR
How it was run: as §1

PI3Kα = target: T4, PI3Kα (Homo sapiens, UniProt P42336); test: In vitro determination of the PI3K enzyme inhibitory activity in the cell free assay (ADP-Glo Kinase Assay), PI3Kα; conditions: ATP 50 μM, read-out: PI3K alpha inhibition
T4 construct: purchased Millipore Ltd (Billerica, Mass.)
T4 sequence (P42336 whole entry): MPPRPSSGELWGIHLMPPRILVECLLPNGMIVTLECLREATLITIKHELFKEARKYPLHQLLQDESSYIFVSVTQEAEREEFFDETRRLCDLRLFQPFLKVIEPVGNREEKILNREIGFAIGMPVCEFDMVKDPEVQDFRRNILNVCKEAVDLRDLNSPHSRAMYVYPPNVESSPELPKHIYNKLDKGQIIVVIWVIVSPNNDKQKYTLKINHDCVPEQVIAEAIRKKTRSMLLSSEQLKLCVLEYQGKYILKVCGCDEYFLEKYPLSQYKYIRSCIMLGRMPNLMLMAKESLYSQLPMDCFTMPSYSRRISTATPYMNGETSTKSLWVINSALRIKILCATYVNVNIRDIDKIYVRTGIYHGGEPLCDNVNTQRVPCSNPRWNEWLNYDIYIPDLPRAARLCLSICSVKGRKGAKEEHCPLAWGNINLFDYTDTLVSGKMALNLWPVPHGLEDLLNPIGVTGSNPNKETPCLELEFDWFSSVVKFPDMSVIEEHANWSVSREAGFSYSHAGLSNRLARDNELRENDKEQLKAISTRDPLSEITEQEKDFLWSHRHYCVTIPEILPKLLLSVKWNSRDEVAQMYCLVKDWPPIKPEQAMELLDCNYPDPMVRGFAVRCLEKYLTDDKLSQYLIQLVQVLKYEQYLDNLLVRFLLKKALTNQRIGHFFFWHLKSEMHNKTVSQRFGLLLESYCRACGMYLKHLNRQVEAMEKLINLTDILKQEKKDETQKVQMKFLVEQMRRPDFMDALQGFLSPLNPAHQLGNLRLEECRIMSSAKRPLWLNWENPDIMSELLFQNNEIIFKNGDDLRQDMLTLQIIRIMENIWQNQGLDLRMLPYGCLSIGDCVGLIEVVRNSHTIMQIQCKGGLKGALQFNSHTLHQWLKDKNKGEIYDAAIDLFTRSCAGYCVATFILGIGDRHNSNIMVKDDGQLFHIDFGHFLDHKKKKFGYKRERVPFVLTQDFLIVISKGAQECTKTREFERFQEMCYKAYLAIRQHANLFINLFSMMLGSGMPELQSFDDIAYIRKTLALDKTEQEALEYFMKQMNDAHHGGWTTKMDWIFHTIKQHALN
T4 sequence (P27986 whole entry partner): as the sequence (P27986 whole entry partner) above
How it was run: as §1

T1 sequence (O00329 whole entry): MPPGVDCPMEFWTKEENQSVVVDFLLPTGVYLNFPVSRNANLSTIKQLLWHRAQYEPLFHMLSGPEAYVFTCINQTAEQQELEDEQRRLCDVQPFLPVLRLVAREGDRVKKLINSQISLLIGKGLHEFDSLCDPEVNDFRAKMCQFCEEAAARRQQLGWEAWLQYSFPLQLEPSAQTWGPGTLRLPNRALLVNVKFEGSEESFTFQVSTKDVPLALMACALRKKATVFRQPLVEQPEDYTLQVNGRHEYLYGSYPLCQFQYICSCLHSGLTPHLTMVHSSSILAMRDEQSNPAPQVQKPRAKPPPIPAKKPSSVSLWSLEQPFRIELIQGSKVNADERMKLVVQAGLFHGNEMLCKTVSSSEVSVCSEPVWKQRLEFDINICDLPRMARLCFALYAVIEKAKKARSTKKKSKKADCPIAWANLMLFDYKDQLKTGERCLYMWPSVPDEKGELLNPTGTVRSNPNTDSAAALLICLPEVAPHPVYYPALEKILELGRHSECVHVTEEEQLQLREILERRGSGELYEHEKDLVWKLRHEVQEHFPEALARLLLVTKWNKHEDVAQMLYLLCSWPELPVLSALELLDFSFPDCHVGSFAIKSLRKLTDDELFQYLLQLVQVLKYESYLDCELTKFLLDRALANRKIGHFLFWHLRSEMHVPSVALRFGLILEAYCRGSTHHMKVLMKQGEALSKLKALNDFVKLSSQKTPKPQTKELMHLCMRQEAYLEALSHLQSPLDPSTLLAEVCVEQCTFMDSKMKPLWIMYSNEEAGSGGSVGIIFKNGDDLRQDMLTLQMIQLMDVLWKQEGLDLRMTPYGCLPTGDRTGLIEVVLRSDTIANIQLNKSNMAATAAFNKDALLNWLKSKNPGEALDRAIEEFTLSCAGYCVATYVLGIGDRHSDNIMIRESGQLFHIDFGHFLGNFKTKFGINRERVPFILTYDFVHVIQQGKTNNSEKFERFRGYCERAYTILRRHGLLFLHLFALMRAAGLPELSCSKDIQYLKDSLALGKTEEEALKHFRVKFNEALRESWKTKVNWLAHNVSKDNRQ
T1 sequence (P27986 whole entry partner): as the sequence (P27986 whole entry partner) above

| IC50 (PI3Kδ) [µM] | IC50 (PI3Kγ) [µM] | IC50 (PI3Kβ) [µM] | IC50 (PI3Kα) [µM] | Compound |
| --- | --- | --- | --- | --- |
| < 0.01 | > 1 | 0.01 to 1 | > 1 | CC(c1cc2ccccn2c1-c1ccc(CN2CCOCC2)cn1)n1nc(-c2cc(O)cc(F)c2)c2c(N)ncnc21 (stereo not shown) [Example 108, 3-[4-amino-1-(1-{3-[5-(morpholin-4-ylmethyl)pyridin-2-yl]indolizin-2-yl}ethyl)-1H-pyrazolo[3,4-d]pyrimidin-3-yl]-5-fluorophenol] |
| 0.01 to 1 | > 1 | 0.01 to 1 | > 1 | CC(c1cc2ccccn2c1-c1ccc(CN(C)C)cn1)n1nc(-c2cc(O)cc(F)c2)c2c(N)ncnc21 (stereo not shown) [Example 109, 3-{4-amino-1-[1-(3-{5-[(dimethylamino)-methyl]pyridin-2-yl}indolizin-2-yl)ethyl]-1H-pyrazolo[3,4-d]pyrimidin-3-yl}-5-fluorophenol] |
| < 0.01 | > 1 | 0.01 to 1 | > 1 | CC(c1cc2ccccn2c1-c1cccc(CN2CCOCC2)n1)n1nc(-c2cc(O)cc(F)c2)c2c(N)ncnc21 (stereo not shown) [Example 110, 3-[4-amino-1-(1-{3-[6-(morpholin-4-ylmethyl)pyridin-2-yl]indolizin-2-yl}ethyl)-1H-pyrazolo[3,4-d]-pyrimidin-3-yl]-5-fluorophenol] |
| < 0.01 | 0.01 to 1 | 0.01 to 1 | > 1 | CC(c1cc2ccccn2c1-c1cc(CN2CCOCC2)ccn1)n1nc(-c2cc(O)cc(F)c2)c2c(N)ncnc21 (stereo not shown) [Example 111, 3-[4-amino-1-(1-{3-[4-(morpholin-4-ylmethyl)pyridin-2-yl]indolizin-2-yl}ethyl)-1H-pyrazolo[3,4-d]-pyrimidin-3-yl]-5-fluorophenol] |
| < 0.01 | 0.01 to 1 | 0.01 to 1 | 0.01 to 1 | CC(c1cc2ccccn2c1-c1cc(CN(C)C)ccn1)n1nc(-c2cc(O)cc(F)c2)c2c(N)ncnc21 (stereo not shown) [Example 112, 3-{4-amino-1-[1-(3-{4-[(dimethylamino)-methyl]pyridin-2-yl}indolizin-2-yl)-ethyl]-1H-pyrazolo[3,4-d]pyrimidin-3-yl}-5-fluorophenol] |
| < 0.01 | > 1 | 0.01 to 1 | > 1 | CC(c1cc2ccccn2c1-c1ccc(CN2CCCC2)cn1)n1nc(-c2cc(O)cc(F)c2)c2c(N)ncnc21 (stereo not shown) [Example 113, 3-[4-amino-1-(1-{3-[5-(pyrrolidin-1-ylmethyl)pyridin-2-yl]indolizin-2-yl}ethyl)-1H-pyrazolo[3,4-d]pyrimidin-3-yl]-5-fluorophenol] |
| < 0.01 | > 1 | 0.01 to 1 | > 1 | CC(c1cc2ccccn2c1-c1ccc(CN2CCN(C)CC2)cn1)n1nc(-c2cc(O)cc(F)c2)c2c(N)ncnc21 (stereo not shown) [Example 114, 3-{4-amino-1-[1-(3-{5-[(4-methylpiperazin-1-yl)methyl]pyridin-2-yl}indolizin-2-yl)ethyl]-1H-pyrazolo-[3,4-d]pyrimidin-3-yl}-5-fluorophenol] |
| 0.01 to 1 | 0.01 to 1 | 0.01 to 1 | 0.01 to 1 | CC(c1cc2ccccn2c1-c1cccc(CN2CCN(C)CC2)n1)n1nc(-c2cc(O)cc(F)c2)c2c(N)ncnc21 (stereo not shown) [Example 115, 3-{4-amino-1-[1-(3-{6-[(4-methylpiperazin-1-yl)methyl]pyridin-2-yl}indolizin-2-yl)ethyl]-1H-pyrazolo-[3,4-d]pyrimidin-3-yl}-5-fluorophenol] |
| < 0.01 | 0.01 to 1 | 0.01 to 1 | 0.01 to 1 | CC(c1cc2ccccn2c1-c1cc(CN2CCN(C)CC2)ccn1)n1nc(-c2cc(O)cc(F)c2)c2c(N)ncnc21 (stereo not shown) [Example 116, 3-{4-amino-1-[1-(3-{4-[(4-methylpiperazin-1-yl)methyl]pyridin-2-yl}indolizin-2-yl)ethyl]-1H-pyrazolo-[3,4-d]pyrimidin-3-yl}-5-fluorophenol] |
| < 0.01 | > 1 | 0.01 to 1 | > 1 | CC(c1cc2ccccn2c1-c1ccc(CN(CCO)CCO)cn1)n1nc(-c2cc(O)cc(F)c2)c2c(N)ncnc21 (stereo not shown) [Example 117, 3-(4-amino-1-{1-[3-(5-{[bis(2-hydroxyethyl)amino]methyl}pyridin-2-yl)indolizin-2-yl]ethyl}-1H-pyrazolo[3,4-d]pyrimidin-3-yl)-5-fluorophenol] |
| < 0.01 | > 1 | 0.01 to 1 | > 1 | CC(c1cc2ccccn2c1-c1ccc(OCCN2CCOCC2)cn1)n1nc(-c2cc(O)cc(F)c2)c2c(N)ncnc21 (stereo not shown) [Example 119, 3-{4-amino-1-[1-(3-{5-[2-(morpholin-4-yl)ethoxy]pyridin-2-yl}indolizin-2-yl)ethyl]-1H-pyrazolo[3,4-d]-pyrimidin-3-yl}-5-fluorophenol] |
| < 0.01 | 0.01 to 1 | > 1 | > 1 | CC(c1cc2ccccn2c1-c1ccc(=O)n(CCN2CCOCC2)c1)n1nc(-c2cc(O)cc(F)c2)c2c(N)ncnc21 (stereo not shown) [Example 120, 5-(2-{1-[4-amino-3-(3-fluoro-5-hydroxyphenyl)-1H-pyrazolo[3,4-d]pyrimidin-1-yl]ethyl}-indolizin-3-yl)-1-[2-(morpholin-4-yl)ethyl]-1,2-dihydropyridin-2-one] |
| < 0.01 | 0.01 to 1 | 0.01 to 1 | > 1 | CC(c1cc2ccccn2c1-c1ccn(CCN2CCOCC2)c(=O)c1)n1nc(-c2cc(O)cc(F)c2)c2c(N)ncnc21 (stereo not shown) [Example 121, 4-(2-{1-[4-amino-3-(3-fluoro-5-hydroxyphenyl)-1H-pyrazolo[3,4-d]pyrimidin-1-yl]ethyl}-indolizin-3-yl)-1-[2-(morpholin-4-yl)ethyl]-1,2-dihydropyridin-2-one] |
| < 0.01 | > 1 | 0.01 to 1 | > 1 | CC(c1cc2ccccn2c1-c1ccn(CCN2CCOCC2)c(=O)c1)n1nc(-c2cncc(O)c2)c2c(N)ncnc21 (stereo not shown) [Example 122, 4-(2-{1-[4-amino-3-(5-hydroxypyridin-3-yl)-1H-pyrazolo[3,4-d]pyrimidin-1-yl]ethyl}indolizin-3-yl)-1-[2-(morpholin-4-yl)ethyl]-1,2-dihydropyridin-2-one] |
| < 0.01 | > 1 | 0.01 to 1 | > 1 | CC(c1cc2ccccn2c1-c1ccccc1C#N)n1nc(-c2cc(O)cc(F)c2)c2c(N)ncnc21 (stereo not shown) [Example 123, 2-(2-{1-[4-amino-3-(3-fluoro-5-hydroxyphenyl)-1H-pyrazolo[3,4-d]pyrimidin-1-yl]-ethyl}indolizin-3-yl)benzonitrile] |
| < 0.01 | > 1 | 0.01 to 1 | > 1 | CC(c1c(C(F)(F)F)c2ccccn2c1-c1ccccn1)n1nc(-c2cc(O)cc(F)c2)c2c(N)ncnc21 (stereo not shown) [Example 124, 3-(4-amino-1-{1-[3-(pyridin-2-yl)-1-(trifluoromethyl)indolizin-2-yl]ethyl}-1H-pyrazolo[3,4-d]pyrimidin-3-yl)-5-fluorophenol] |
| < 0.01 | 0.01 to 1 | 0.01 to 1 | 0.01 to 1 | CC(c1cc2ccccn2c1-c1ccc(C(=O)N2CCOCC2)cn1)n1nc(-c2cc(O)cc(F)c2)c2c(N)ncnc21 (stereo not shown) [Example 125, 3-[4-amino-1-(1-{3-[5-(morpholine-4-carbonyl)pyridin-2-yl]indolizin-2-yl}ethyl)-1H-pyrazolo[3,4-d]-pyrimidin-3-yl]-5-fluorophenol] |
| < 0.01 | 0.01 to 1 | 0.01 to 1 | 0.01 to 1 | CC(c1c(C#N)c2ccccn2c1-c1ccccn1)n1nc(-c2cc(O)cc(F)c2)c2c(N)ncnc21 (stereo not shown) [Example 126, 2-{1-[4-amino-3-(3-fluoro-5-hydroxyphenyl)-1H-pyrazolo[3,4-d]pyrimidin-1-yl]-ethyl}-3-(pyridin-2-yl)indolizine-1-carbonitrile] |
| < 0.01 | > 1 | 0.01 to 1 | > 1 | CC(c1c(C#N)c2ccccn2c1-c1cccc(CN(C)C)c1)n1nc(-c2cc(O)cc(F)c2)c2c(N)ncnc21 (stereo not shown) [Example 127, 2-{1-[4-amino-3-(3-fluoro-5-hydroxyphenyl)-1H-pyrazolo[3,4-d]pyrimidin-1-yl]-ethyl}-3-{3-[(dimethylamino)-methyl]phenyl}indolizine-1-carbonitrile] |
| 0.01 to 1 | > 1 | 0.01 to 1 | > 1 | CC(c1cc2cccnn2c1-c1cccc(CN(C)C)c1)n1nc(-c2cc(O)cc(F)c2)c2c(N)ncnc21 (stereo not shown) [Example 128, 3-{4-amino-1-[1-(7-{3-[(dimethylamino)-methyl]phenyl}pyrrolo[1,2-b]pyridazin-6-yl)-ethyl]-1H-pyrazolo[3,4-d]pyrimidin-3-yl}-5-fluorophenol] |
| 0.01 to 1 | 0.01 to 1 | 0.01 to 1 | 0.01 to 1 | CC(c1cc2ccccn2c1-c1cscn1)n1nc(-c2cc(O)cc(F)c2)c2c(N)ncnc21 (stereo not shown) [Example 129, 3-(4-amino-1-{1-[3-(1,3-thiazol-4-yl)indolizin-2-yl]-ethyl}-1H-pyrazolo[3,4-d]pyrimidin-3-yl)-5-fluorophenol] |
| < 0.01 | 0.01 to 1 | 0.01 to 1 | > 1 | CC(c1cc2ccccn2c1-c1csc(CN2CCOCC2)n1)n1nc(-c2cc(O)cc(F)c2)c2c(N)ncnc21 (stereo not shown) [Example 130, 3-[4-amino-1-(1-{3-[2-(morpholin-4-ylmethyl)-1,3-thiazol-4-yl]indolizin-2-yl}ethyl)-1H-pyrazolo-[3,4-d]pyrimidin-3-yl]-5-fluorophenol] |
